pIC50: −log10 of the molar value. Converted amounts (≈) assume the structure as drawn. Like-named read-outs stand apart in the source and are kept apart here.
Assays:
[1] = system: Acinetobacter baumannii DSM 30007, ATCC 19606; assay: Antibacterial microdilution broth MIC, ACI; format: cell-based
[2] = system: Candida albicans CCM 8320, ATCC 24433; assay: Antifungal microdilution broth MIC, CA
[3] = system: Lichtheimia corymbifera CCM 8077; assay: Antifungal microdilution broth MIC, LC
[4] = system: Candida tropicalis CCM 8264, ATCC 750; assay: Antifungal microdilution broth MIC, CT
[5] = system: Mycolicibacterium aurum DSM 43999; assay: Antimycobacterial microdilution broth MIC (resazurin), M. aurum; format: cell-based; details: DSM43999, read-out: MIC M. aurum
[6] = system: Staphylococcus epidermidis CCM 4418, ATCC 12228; assay: Antibacterial microdilution broth MIC, SE; format: cell-based
[7] = system: Klebsiella pneumoniae CCM 4415, ATCC 10031; assay: Antibacterial microdilution broth MIC, KP
[8] = system: Aspergillus flavus CCM 8363; assay: Antifungal microdilution broth MIC, AFla
[9] = system: Aspergillus fumigatus ATCC 204305; assay: Antifungal microdilution broth MIC, AF
[10] = system: Mycobacterium tuberculosis H37Ra; assay: Antimycobacterial microdilution broth MIC (resazurin), Mtb H37Ra; format: cell-based; details: for MIC: Mycobacterium tuberculosis, H37RA; for SI (selectivity index): SI = HepG2 IC50 (μM)/MIC MtbH37Ra (μM), calculated for compounds with MIC ≤ 31.25 μg/mL
[11] = system: Trichophyton interdigitale CCM 8377, ATCC 9533; assay: Antifungal microdilution broth MIC, TI; details: Trichophyton interdigitale
HepG2 cell line = assay: Cytotoxicity CellTiter 96, HepG2; format: cell-based, human; details: 24 h incubation, ^c compound precipitated in the testing medium, ^d over the limit of tested concentrations
[12] = system: Candida parapsilosis CCM 8260, ATCC 22019; assay: Antifungal microdilution broth MIC, CP; details: Lodderomyces parapsilosis
[13] = system: Candida krusei CCM 8271, ATCC 6258; assay: Antifungal microdilution broth MIC, CK; details: Pichia kudriavzevii
[14] = system: Pseudomonas aeruginosa CCM 3955, ATCC 27853; assay: Antibacterial microdilution broth MIC, PA; format: cell-based
[15] = system: Staphylococcus aureus subsp. aureus CCM 4750, ATCC 43300 (MRSA); assay: Antibacterial microdilution broth MIC, MRSA; format: cell-based; details: Staphylococcus aureus
[16] = system: Enterococcus faecalis CCM 4224, ATCC 29212; assay: Antibacterial microdilution broth MIC, EF; format: cell-based
[17] = system: Mycolicibacterium smegmatis DSM 43465; assay: Antimycobacterial microdilution broth MIC (resazurin), M. smegmatis; format: cell-based; details: DSM43465, read-out: MIC M. smegmatis
[18] = system: Staphylococcus aureus CCM 4223, ATCC 29213; assay: Antibacterial microdilution broth MIC, SA; format: cell-based; details: Staphylococcus aureus
[19] = system: Escherichia coli CCM 3954, ATCC 25922; assay: Antibacterial microdilution broth MIC, EC; format: cell-based
[20] = CCM8077, 24 h, read-out: MIC LC 24h
[21] = CCM8077, 48 h, read-out: MIC LC 48h
[22] = CCM8363, 24 h, read-out: MIC AFla 24h
[23] = CCM8363, 48 h, read-out: MIC AFla 48h
[24] = ATCC204305, 24 h, read-out: MIC AF 24h
[25] = ATCC204305, 48 h, read-out: MIC AF 48h
[26] = Calculated from MIC (μg/mL), read-out: MIC Mtb H37Ra

Compound	MIC ([1]; 24 h, read-out: MIC ACI 24h)	MIC ([1]; 48 h, read-out: MIC ACI 48h)	MIC ([2]; 24 h, read-out: MIC CA 24h)	MIC ([2]; 48 h, read-out: MIC CA 48h)	MIC [3, 20]	MIC [3, 21]	MIC ([4]; 24 h, read-out: MIC CT 24h)	MIC ([4]; 48 h, read-out: MIC CT 48h)	MIC [5]	MIC ([6]; 24 h, read-out: MIC SE 24h)	MIC ([6]; 48 h, read-out: MIC SE 48h)	MIC KP 24h [7]	MIC KP 48h [7]	MIC [8, 22]	MIC [8, 23]	MIC [9, 24]	MIC [9, 25]	MIC ([11]; 72 h, read-out: MIC TI 72h)	MIC ([11]; 120 h, read-out: MIC TI 120h)	pIC50 (HepG2 cell line; Homo sapiens, HepG2, 24 h)	further results
O=C(Cc1ccccc1)Nc1ccccn1 [Compound 1]	> 500 µM	> 500 µM	500 µM (≈ 106 µg/mL)	500 µM (≈ 106 µg/mL)	> 500 µM	> 500 µM	500 µM (≈ 106 µg/mL)	500 µM (≈ 106 µg/mL)	250 µg/mL (≈ 1180 µM)	> 500 µM	> 500 µM	> 500 µM	> 500 µM	> 500 µM	> 500 µM	> 500 µM	> 500 µM	500 µM (≈ 106 µg/mL)	500 µM (≈ 106 µg/mL)	< 3.30	MIC ([10]; read-out: MIC Mtb H37Ra (μM)): 147 µM; MIC ([10]; read-out: MIC Mtb H37Ra (μg/mL)): 31.2 µg/mL; pIC50 (HepG2 cell line): < 3.00; MIC ([12]; 24 h, read-out: MIC CP 24h): 500 µM (≈ 106 µg/mL); MIC ([12]; 48 h, read-out: MIC CP 48h): 500 µM (≈ 106 µg/mL); MIC ([13]; 24 h, read-out: MIC CK 24h): 500 µM (≈ 106 µg/mL); MIC ([13]; 48 h, read-out: MIC CK 48h): 500 µM (≈ 106 µg/mL); MIC ([14]; 24 h, read-out: MIC PA 24h): > 500 µM; MIC ([14]; 48 h, read-out: MIC PA 48h): > 500 µM; MIC ([15]; 24 h, read-out: MIC MRSA 24h): > 500 µM; MIC ([15]; 48 h, read-out: MIC MRSA 48h): > 500 µM; MIC ([16]; 24 h, read-out: MIC EF 24h): > 500 µM; MIC ([16]; 48 h, read-out: MIC EF 48h): > 500 µM; MIC [17]: 62.5 µg/mL (≈ 294 µM); MIC ([18]; 24 h, read-out: MIC SA 24h): > 500 µM; MIC ([18]; 48 h, read-out: MIC SA 48h): > 500 µM; MIC ([19]; 24 h, read-out: MIC EC 24h): > 500 µM; MIC ([19]; 48 h, read-out: MIC EC 48h): > 500 µM
O=C(Cc1ccccc1C(F)(F)F)Nc1ccc(Cl)cn1 [Compound 23]	> 500 µM	> 500 µM	> 500 µM	> 500 µM	> 500 µM	> 500 µM	> 500 µM	> 500 µM	> 500 µg/mL	> 500 µM	> 500 µM	> 500 µM	> 500 µM	> 500 µM	> 500 µM	> 500 µM	> 500 µM	500 µM (≈ 157 µg/mL)	500 µM (≈ 157 µg/mL)	3.70	MIC [10, 26]: 99.3 µM; MIC ([10]; read-out: MIC Mtb H37Ra): 31.2 µg/mL; SI (selectivity index) [10]: 2.0; MIC ([12]; 24 h, read-out: MIC CP 24h): > 500 µM; MIC ([12]; 48 h, read-out: MIC CP 48h): > 500 µM; MIC ([13]; 24 h, read-out: MIC CK 24h): > 500 µM; MIC ([13]; 48 h, read-out: MIC CK 48h): > 500 µM; MIC ([14]; 24 h, read-out: MIC PA 24h): > 500 µM; MIC ([14]; 48 h, read-out: MIC PA 48h): > 500 µM; MIC ([15]; 24 h, read-out: MIC MRSA 24h): > 500 µM; MIC ([15]; 48 h, read-out: MIC MRSA 48h): > 500 µM; MIC ([16]; 24 h, read-out: MIC EF 24h): > 500 µM; MIC ([16]; 48 h, read-out: MIC EF 48h): > 500 µM; MIC [17]: > 500 µg/mL; MIC ([18]; 24 h, read-out: MIC SA 24h): > 500 µM; MIC ([18]; 48 h, read-out: MIC SA 48h): > 500 µM; MIC ([19]; 24 h, read-out: MIC EC 24h): > 500 µM; MIC ([19]; 48 h, read-out: MIC EC 48h): > 500 µM
O=C(Cc1cccc(C(F)(F)F)c1)Nc1cccc(Cl)n1 [Compound 27]	> 500 µM	> 500 µM	> 500 µM	> 500 µM	> 500 µM	> 500 µM	> 500 µM	> 500 µM	15.6 µg/mL (≈ 49.7 µM)	250 µM (≈ 78.7 µg/mL)	250 µM (≈ 78.7 µg/mL)	> 500 µM	> 500 µM	> 500 µM	> 500 µM	> 500 µM	> 500 µM	> 500 µM	> 500 µM	3.83	MIC [10, 26]: 99.3 µM; MIC ([10]; read-out: MIC Mtb H37Ra): 31.2 µg/mL; SI (selectivity index) [10]: 1.5; MIC ([12]; 24 h, read-out: MIC CP 24h): > 500 µM; MIC ([12]; 48 h, read-out: MIC CP 48h): > 500 µM; MIC ([13]; 24 h, read-out: MIC CK 24h): > 500 µM; MIC ([13]; 48 h, read-out: MIC CK 48h): > 500 µM; MIC ([14]; 24 h, read-out: MIC PA 24h): > 500 µM; MIC ([14]; 48 h, read-out: MIC PA 48h): > 500 µM; MIC ([15]; 24 h, read-out: MIC MRSA 24h): > 500 µM; MIC ([15]; 48 h, read-out: MIC MRSA 48h): > 500 µM; MIC ([16]; 24 h, read-out: MIC EF 24h): > 500 µM; MIC ([16]; 48 h, read-out: MIC EF 48h): > 500 µM; MIC [17]: > 500 µg/mL; MIC ([18]; 24 h, read-out: MIC SA 24h): > 500 µM; MIC ([18]; 48 h, read-out: MIC SA 48h): > 500 µM; MIC ([19]; 24 h, read-out: MIC EC 24h): > 500 µM; MIC ([19]; 48 h, read-out: MIC EC 48h): > 500 µM
O=C(Cc1ccccc1Cl)Nc1ccccn1 [Compound 13, 2-(2-chlorophenyl)-N-(pyridin-2-yl)acetamide]	> 500 µM	> 500 µM	> 500 µM	> 500 µM	> 500 µM	> 500 µM	> 500 µM	> 500 µM	250 µg/mL (≈ 1010 µM)	500 µM (≈ 123 µg/mL)	500 µM (≈ 123 µg/mL)	> 500 µM	> 500 µM	> 500 µM	> 500 µM	> 500 µM	> 500 µM	500 µM (≈ 123 µg/mL)	500 µM (≈ 123 µg/mL)	3.12	MIC [10, 26]: 253 µM; MIC ([10]; read-out: MIC Mtb H37Ra): 62.5 µg/mL; MIC ([12]; 24 h, read-out: MIC CP 24h): > 500 µM; MIC ([12]; 48 h, read-out: MIC CP 48h): > 500 µM; MIC ([13]; 24 h, read-out: MIC CK 24h): > 500 µM; MIC ([13]; 48 h, read-out: MIC CK 48h): > 500 µM; MIC ([14]; 24 h, read-out: MIC PA 24h): > 500 µM; MIC ([14]; 48 h, read-out: MIC PA 48h): > 500 µM; MIC ([15]; 24 h, read-out: MIC MRSA 24h): > 500 µM; MIC ([15]; 48 h, read-out: MIC MRSA 48h): > 500 µM; MIC ([16]; 24 h, read-out: MIC EF 24h): > 500 µM; MIC ([16]; 48 h, read-out: MIC EF 48h): > 500 µM; MIC [17]: > 500 µg/mL; MIC ([18]; 24 h, read-out: MIC SA 24h): > 500 µM; MIC ([18]; 48 h, read-out: MIC SA 48h): > 500 µM; MIC ([19]; 24 h, read-out: MIC EC 24h): > 500 µM; MIC ([19]; 48 h, read-out: MIC EC 48h): > 500 µM

From publication PMC11748363, “Antimicrobial and Antiproliferative Properties of 2‐Phenyl‐N‐(Pyridin‐2‐yl)acetamides” (Chemical Biology & Drug Design, 2025)
